# In patent EP0102509A1, “Oxamid-acid derivatives, process for their preparation and therapeutical agents containing them” (BASF Aktiengesellschaft, priority 1982, dated 1984):
# Test system: passiven cutanen Anaphylaxie (PCA)
# Experiment: Passive cutaneous anaphylaxis (PCA) in rats, oral administration
# Format: in vivo, Ratte
# Conditions: for ED50: read-out: Hemmung der PCA ED 50 %; for Hemmung der PCA R.W.: relative potency after oral administration, comparison compound A = 1.00
# Method: Die antiallergische Wirkung wurde an Ratten getestet. Zur Prüfung wurde das Modell der passiven cutanen Anaphylaxie (PCA) verwendet: • Narkotisierte männliche Ratten (100 - 140 g) werden durch intradermale Injektion (rasierte Rückenhaut) von 0,1 ml eines Ovalbumin-Antiserums sensibilisiert. Nach einer Sensibilisierüngsdauer von ca. 48 h erfolgt die Behandlung (orale Applikation) mit unterschiedlichen Dosierungen (10 Tiere/Dosis) der Prüfsubstanzen. 15 bzw. 20 min nach der Behandlung wird eine Antigen/Evansblau-Mischung (10 mg/kg Ovalbumin in 2%iger Evansblau-Lösung) den Versuchstieren intravenös injiziert. 30 min später werden die Tiere getötet, die Rückenhaut abgezogen und auf der inneren Oberfläche der Durchmesser der kreisförmigen Blaufärbung gemessen. Die Größe der Farbflecke unbehandelter Kontrolltiere ist standardisierbar. Antiallergisch wirksame Substanzen verkleinern dosisabhängig den Durchmesser der Farbflecke. Als ED-50 % wird die Dosis angegeben, die im Vergleich zu medikamentös unbehandelten Kontrolltieren den Durchmesser der Farbflecke um 50 % herabsetzt.
# [1] = oral administration, rat, dose that reduces the diameter of the dye spots by 50 % vs untreated controls
compound,measurement,setting,value
"O=C(O)c1cc(=O)c2c(OCC(O)COc3cccc4oc(C(=O)O)cc(=O)c34)cccc2o1 [Cromolyne, reference compound]",Antiallergische Wirkung,"bis 100 mg/kg p.o., rat PCA",unwirksam
same,ED50,[1],> 100 mg/kg
"CCOCCOC(=O)C(=O)Nc1cccc(NC(=O)C(=O)OCCOCC)c1 [Beispiel 2, N,N'-(1,3-Phenylen)-dioxamidsäure-2-ethoxyethylester]",ED50,[1],2.77 mg/kg
same,Hemmung der PCA R.W.,,3.10
same,Hemmung der PCA R.W.,listed as Bsp. 2,"3,10"
"N,N'-(1,3-Phenylen)-dioxamidsäure-2-butoxyethylester [Beispiel 3]",Hemmung der PCA ED 50 %,[1],ca. 4.64 mg/kg
same,Hemmung der PCA R.W.,,ca. 1.85
same,Hemmung der PCA R.W.,listed as Bsp. 3,"1,85"
